According to publication PMC9601670, “Solubility Enhancement, Formulation Development, and Antibacterial Activity of Xanthan-Gum-Stabilized Colloidal Gold Nanogel of Hesperidin against Proteus vulgaris” (Gels, 2022):
≈ marks a conversion by molar mass, not a printed value.

Key:
[1] = Solubility study of HSP (shake flask); type: physicochemical; details: for Hesperidin Solubility: shaken 24 h, room temperature
Procedure: The solubility of HSP was determined by adopting the standard shake flask technique according to the method described by Majumdar and colleagues. The screening of the solution was performed by evaluating the solubility of HSP (10% (w/v) with respect to pH solution. To perform this experiment, 10% w/v of HSP was added to a glass vial containing 5 mL of the chosen solvent and tightly sealed. To ensure homogeneous mixing, the samples were shaken continuously for 24 h in a water bath at room temperature and 50 rpm. After 24 h, samples were centrifuged at 4500 rpm and HSP was assayed in the supernatant. Solubility was determined in water and in buffers with pH values ranging from 1.2 to 6.8. In addition, the effect of XA-stabilized AuNPs on the solubility of hesperidin was examined to determine by how much the solubility was increased.

[2] = system: Proteus vulgaris (MTCC 7299); experiment: Minimum inhibitory concentration (microtiter plate dilution); type: cell-based; details: P. vulgaris MTCC 7299, 37 °C, 24 h, absorbance 640 nm; method: concentration that inhibited 50% of bacterial growth
Procedure: Briefly, stock solutions of XA@AuNPs gel and HSP@XA@AuNPs gel were prepared in water to ensure complete solubilization at a concentration of 1 mg/mL. A total of 100 µL of nutrient broth and Sabouraud dextrose broth was added to wells 1 to 10. XA@AuNPs gel and HSP@XA@AuNPs gel samples (100 µL) were added to the first well. The solution was serially diluted from well 1 to well 10, while 100 µL from well 10 was discarded. Then 100 µL of the bacterial suspension was added to all dilution wells from well 1 to well 10. The overnight bacterial suspension (100 µL) was added to well 11, and 100 µL of sterile broth was added to serve as a positive control or growth control, while 200 µL of sterile nutrient broth and Sabouraud dextrose broth in well 12 served as a negative control or sterility control. The plate was incubated at 37 °C for 24 h. After incubation, absorbance in each well was measured using an ELISA reader (Erba) at a wavelength of 640 nm. The procedure described above was performed for each microbial strain. The concentration of the sample and standard that inhibited 50% of bacterial growth was determined for all microorganisms. All tests were performed in triplicate to minimize error.

SMILES: COc1ccc([C@@H]2CC(=O)c3c(O)cc(O[C@@H]4O[C@H](CO[C@@H]5O[C@@H](C)[C@H](O)[C@@H](O)[C@H]5O)[C@@H](O)[C@H](O)[C@H]4O)cc3O2)cc1O [HSP, hesperidin]
- Hesperidin Solubility ([1]; Water): 4.09 ± 0.20 µg/mL
- Hesperidin Solubility ([1]; XA-stabilized AuNPs as solvent): 62.23 ± 3.1 µg/mL
- Solubility increase by addition of XA-stabilized AuNPs compared to water ([1]; XA-stabilized AuNPs vs water): 15 fold
- Hesperidin Solubility ([1]; pH 1.2 buffer): 2.44 ± 0.12 µg/mL
- Hesperidin Solubility ([1]; pH 5.0 buffer): 3.42 ± 0.17 µg/mL
- Hesperidin Solubility ([1]; pH 6.8 buffer): 6.19 ± 0.30 µg/mL
- MIC [2]: 9.2 µg/mL (≈ 15.1 µM)
